In US9017681B2, “Adenylyl cyclases as novel targets for antibactrial interventions” (Cornell Research Foundation, Inc., priority 2007, dated 2015):

target: T1, human sAC (Homo sapiens, UniProt Q96PN6); assay: in vitro adenylyl cyclase assay with purified human sAC protein (cAMP by Correlate-EIA); type: biochemical; conditions: 100 μM of compound; BASAL human sAC in vitro activity; read-out: % Inhibition (100 μM), hsACt-Basal
T1 construct: made in house
T1 sequence (Q96PN6 1-469 limits assumed): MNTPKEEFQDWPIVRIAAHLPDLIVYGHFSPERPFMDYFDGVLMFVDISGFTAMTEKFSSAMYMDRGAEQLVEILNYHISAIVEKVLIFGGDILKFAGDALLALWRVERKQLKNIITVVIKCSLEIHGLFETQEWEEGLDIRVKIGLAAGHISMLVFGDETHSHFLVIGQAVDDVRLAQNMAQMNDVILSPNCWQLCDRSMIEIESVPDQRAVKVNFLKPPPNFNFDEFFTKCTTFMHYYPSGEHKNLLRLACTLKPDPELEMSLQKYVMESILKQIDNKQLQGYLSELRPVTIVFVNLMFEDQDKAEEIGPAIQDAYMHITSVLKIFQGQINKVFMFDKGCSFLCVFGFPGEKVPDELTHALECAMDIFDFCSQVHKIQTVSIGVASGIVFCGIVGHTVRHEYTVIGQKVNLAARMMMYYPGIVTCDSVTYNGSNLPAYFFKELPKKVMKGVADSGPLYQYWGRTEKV
Protocol: Purified human sAC protein was used in an in vitro adenylyl cyclase assay. Purification of the protein is described in detail in Litvin et al. 2003. (J. Biol. Chem. 278:15922-15926). This paper also describes the general conditions for a sAC cyclase assay. The specific conditions for the in vitro assay are as follows.
For basal sAC activity, an assay master mixture with sufficient volume for all reactions was prepared containing:
100 U/ml creatine phosphokinase (CPK)
An aliquot of the master mixture was added to the purified human sAC. The assay mixture also included the indicated concentration of KH compound, or an equivalent volume of vehicle (i.e., DMSO) as control. The reaction was started by adding 5 mM ATP (total assay volume=100 μL). The reaction mixture was incubated at 30° C. for 30 minutes and then stopped by adding 100 μl […]. Stimulated assay conditions involve adding 40 mM bicarbonate and 5 mM CaCl2 to the above master mixture.
Cyclic AMP levels were measured in each sample using the Correlate-EIA Direct Cyclic AMP assay kit from Assay Designs as per manufacturers instructions.

| inhibition at 100 µM | Compound |
| --- | --- |
| 40% | COc1cc(/C=N/NC(=O)CSc2nc3ccccc3[nH]2)cc(OC)c1OC(C)=O [KH7.124] |
| 0% | Cn1c(SCC(=O)N/N=C/c2ccccn2)nc2ccccc21 [KH7.140] |
| 0% | Cc1ccc(/C=N/NC(=O)CSc2nc3ccccc3[nH]2)cc1 [KH7.134] |
| 60% | C/C(=N/NC(=O)CSc1nc2ccccc2[nH]1)c1cccc(Br)c1 [KH7.119] |
| 80% | O=C(CSc1nc2ccccc2n1Cc1ccccc1)N/N=C/c1cc(Br)ccc1O [KH7.141] |
| 50% | CC(C)c1ccc(/C=N/NC(=O)CSc2nc3ccccc3[nH]2)cc1 [KH7.135] |
| 0% | O=C(CSc1nc2ccccc2[nH]1)N/N=C/c1cccc(F)c1 [KH7.153] |
| 0% | O=C(CSc1nc2ccccc2[nH]1)N/N=C/c1ccc(Cl)cc1 [KH7.137] |
| 10% | COc1ccc(/C=N/NC(=O)CSc2nc3ccccc3[nH]2)cc1 [KH7.132] |
| 75% | Cc1ccc(Cn2c(SCC(=O)N/N=C/c3cc(Br)ccc3O)nc3ccccc32)cc1 [KH7.143] |
| 50% | O=C(CSc1nc2ccccc2[nH]1)N/N=C/c1ccc([N+](=O)[O-])cc1 [KH7.122] |
| 30% | C/C(=N\NC(=O)CSc1nc2ccccc2[nH]1)c1ccc([N+](=O)[O-])cc1 [KH7.138] |
| 70% | O=C(CSc1nc2ccccc2n1Cc1ccc(Cl)cc1)N/N=C\c1cc(Br)ccc1O [KH7.144] |
| 0% | O=C(CSc1nc2ccccc2[nH]1)N/N=C/c1cccnc1 [KH7.123] |
| 40% | O=C(CSc1nc2ccccc2[nH]1)N/N=C/c1cccc2ccccc12 [KH7.126] |
| 0% | O=C(CSc1nc2ccccc2[nH]1)N/N=C/c1cc([N+](=O)[O-])ccc1Cl [KH7.155] |
| 60% | O=C(CSc1nc2ccccc2[nH]1)N/N=C/c1ccccc1Br [KH7.131] |
| 100% | O=C(CSc1nc2ccccc2[nH]1)N/N=C/c1cc(I)cc(I)c1O [KH7.154] |

same assay, conditions: 100 μM of compound; stimulated human sAC in vitro activity

| Activation, printed in column % Inhibition (100 μM), hsACt-Stim. | Compound |
| --- | --- |
| Activation 100% | O=C(CSc1nc2ccccc2[nH]1)N/N=C/c1ccc(Cl)cc1 [KH7.137] |

same assay, conditions: 100 μM of compound; stimulated human sAC in vitro activity; read-out: % Inhibition (100 μM), hsACt-Stim.

| inhibition at 100 µM | Compound |
| --- | --- |
| 30% | COc1cc(/C=N/NC(=O)CSc2nc3ccccc3[nH]2)cc(OC)c1OC(C)=O [KH7.124] |
| 0% | Cn1c(SCC(=O)N/N=C/c2ccccn2)nc2ccccc21 [KH7.140] |
| 0% | Cc1ccc(/C=N/NC(=O)CSc2nc3ccccc3[nH]2)cc1 [KH7.134] |
| 80% | C/C(=N/NC(=O)CSc1nc2ccccc2[nH]1)c1cccc(Br)c1 [KH7.119] |
| 80% | O=C(CSc1nc2ccccc2n1Cc1ccccc1)N/N=C/c1cc(Br)ccc1O [KH7.141] |
| 0% | CC(C)c1ccc(/C=N/NC(=O)CSc2nc3ccccc3[nH]2)cc1 [KH7.135] |
| 0% | O=C(CSc1nc2ccccc2[nH]1)N/N=C/c1cccc(F)c1 [KH7.153] |
| 0% | COc1ccc(/C=N/NC(=O)CSc2nc3ccccc3[nH]2)cc1 [KH7.132] |
| 75% | Cc1ccc(Cn2c(SCC(=O)N/N=C/c3cc(Br)ccc3O)nc3ccccc32)cc1 [KH7.143] |
| 50% | O=C(CSc1nc2ccccc2[nH]1)N/N=C/c1ccc([N+](=O)[O-])cc1 [KH7.122] |
| 25% | C/C(=N\NC(=O)CSc1nc2ccccc2[nH]1)c1ccc([N+](=O)[O-])cc1 [KH7.138] |
| 80% | O=C(CSc1nc2ccccc2n1Cc1ccc(Cl)cc1)N/N=C\c1cc(Br)ccc1O [KH7.144] |
| 0% | O=C(CSc1nc2ccccc2[nH]1)N/N=C/c1cccnc1 [KH7.123] |
| 50% | O=C(CSc1nc2ccccc2[nH]1)N/N=C/c1cccc2ccccc12 [KH7.126] |
| 0% | O=C(CSc1nc2ccccc2[nH]1)N/N=C/c1cc([N+](=O)[O-])ccc1Cl [KH7.155] |
| 60% | O=C(CSc1nc2ccccc2[nH]1)N/N=C/c1ccccc1Br [KH7.131] |
| 85% | O=C(CSc1nc2ccccc2[nH]1)N/N=C/c1cc(I)cc(I)c1O [KH7.154] |

same assay, conditions: BASAL activity of human sAC in vitro (just Mg-ATP, no calcium or bicarbonate); read-out: hsACt-Basal approximate IC50 (or the dose range where the IC50 should lie)

| IC50 | Compound |
| --- | --- |
| > 100 µM | COc1cc(/C=N/NC(=O)CSc2nc3ccccc3[nH]2)cc(OC)c1OC(C)=O [KH7.124] |
| > 100 µM | Cn1c(SCC(=O)N/N=C/c2ccccn2)nc2ccccc21 [KH7.140] |
| > 100 µM | Cc1ccc(/C=N/NC(=O)CSc2nc3ccccc3[nH]2)cc1 [KH7.134] |
| 10 to 100 µM | C/C(=N/NC(=O)CSc1nc2ccccc2[nH]1)c1cccc(Br)c1 [KH7.119] |
| 1 to 10 µM | O=C(CSc1nc2ccccc2n1Cc1ccccc1)N/N=C/c1cc(Br)ccc1O [KH7.141] |
| > 100 µM | O=C(CSc1nc2ccccc2[nH]1)N/N=C/c1cccc(F)c1 [KH7.153] |
| > 100 µM | O=C(CSc1nc2ccccc2[nH]1)N/N=C/c1ccc(Cl)cc1 [KH7.137] |
| > 100 µM | COc1ccc(/C=N/NC(=O)CSc2nc3ccccc3[nH]2)cc1 [KH7.132] |
| 1 µM | Cc1ccc(Cn2c(SCC(=O)N/N=C/c3cc(Br)ccc3O)nc3ccccc32)cc1 [KH7.143] |
| > 100 µM | C/C(=N\NC(=O)CSc1nc2ccccc2[nH]1)c1ccc([N+](=O)[O-])cc1 [KH7.138] |
| 1 µM | O=C(CSc1nc2ccccc2n1Cc1ccc(Cl)cc1)N/N=C\c1cc(Br)ccc1O [KH7.144] |
| > 100 µM | O=C(CSc1nc2ccccc2[nH]1)N/N=C/c1cccnc1 [KH7.123] |
| > 100 µM | O=C(CSc1nc2ccccc2[nH]1)N/N=C/c1cccc2ccccc12 [KH7.126] |
| > 100 µM | O=C(CSc1nc2ccccc2[nH]1)N/N=C/c1cc([N+](=O)[O-])ccc1Cl [KH7.155] |
| 10 to 100 µM | O=C(CSc1nc2ccccc2[nH]1)N/N=C/c1ccccc1Br [KH7.131] |
| 0.1 to 1 µM | O=C(CSc1nc2ccccc2[nH]1)N/N=C/c1cc(I)cc(I)c1O [KH7.154] |

same assay, conditions: stimulated activity of human sAC in vitro (calcium and bicarbonate stimulated); read-out: hsACt-Stim. approximate IC50 (or the dose range where the IC50 should lie)

| IC50 | Compound |
| --- | --- |
| > 100 µM | COc1cc(/C=N/NC(=O)CSc2nc3ccccc3[nH]2)cc(OC)c1OC(C)=O [KH7.124] |
| > 100 µM | Cn1c(SCC(=O)N/N=C/c2ccccn2)nc2ccccc21 [KH7.140] |
| > 100 µM | Cc1ccc(/C=N/NC(=O)CSc2nc3ccccc3[nH]2)cc1 [KH7.134] |
| 10 to 100 µM | C/C(=N/NC(=O)CSc1nc2ccccc2[nH]1)c1cccc(Br)c1 [KH7.119] |
| 1 µM | O=C(CSc1nc2ccccc2n1Cc1ccccc1)N/N=C/c1cc(Br)ccc1O [KH7.141] |
| > 100 µM | CC(C)c1ccc(/C=N/NC(=O)CSc2nc3ccccc3[nH]2)cc1 [KH7.135] |
| > 100 µM | O=C(CSc1nc2ccccc2[nH]1)N/N=C/c1cccc(F)c1 [KH7.153] |
| 30 to 100 µM | O=C(CSc1nc2ccccc2[nH]1)N/N=C/c1ccc(Cl)cc1 [KH7.137] |
| > 100 µM | COc1ccc(/C=N/NC(=O)CSc2nc3ccccc3[nH]2)cc1 [KH7.132] |
| 1 µM | Cc1ccc(Cn2c(SCC(=O)N/N=C/c3cc(Br)ccc3O)nc3ccccc32)cc1 [KH7.143] |
| > 100 µM | C/C(=N\NC(=O)CSc1nc2ccccc2[nH]1)c1ccc([N+](=O)[O-])cc1 [KH7.138] |
| 1 µM | O=C(CSc1nc2ccccc2n1Cc1ccc(Cl)cc1)N/N=C\c1cc(Br)ccc1O [KH7.144] |
| > 100 µM | O=C(CSc1nc2ccccc2[nH]1)N/N=C/c1cccnc1 [KH7.123] |
| 10 to 100 µM | O=C(CSc1nc2ccccc2[nH]1)N/N=C/c1cccc2ccccc12 [KH7.126] |
| > 100 µM | O=C(CSc1nc2ccccc2[nH]1)N/N=C/c1cc([N+](=O)[O-])ccc1Cl [KH7.155] |
| 10 to 100 µM | O=C(CSc1nc2ccccc2[nH]1)N/N=C/c1ccccc1Br [KH7.131] |
| 0.1 to 1 µM | O=C(CSc1nc2ccccc2[nH]1)N/N=C/c1cc(I)cc(I)c1O [KH7.154] |
